From ChEMBL document CHEMBL2157933, “The synthesis and antituberculosis activity of 5'-nor carbocyclic uracil derivatives” (Bioorg Med Chem, 2012)
In brackets after ≈: the same amount, converted by molar mass. Activity calls are given as the source filed them. The calls are words filed in the database; no cut-off is given here.

Legend:
[1] = test system: Mycobacterium tuberculosis; assay: Antibacterial activity against Mycobacterium tuberculosis H37Rv by BACTEC method; type: functional
[2] = (§1) Cytotoxicity against african green monkey Vero cells after 72 hrs by MTT assay; type: cell-based; conditions: chlorocebus sabaeus, Vero cells
[3] = test system: Mycobacterium tuberculosis; assay: Antibacterial activity against Mycobacterium tuberculosis H37Rv assessed as growth inhibition at 20 to 40 ug/ml by BACTEC method; type: functional
[4] = test system: Mycobacterium tuberculosis; assay: Antibacterial activity against Mycobacterium tuberculosis H37Rv under anaerobic condition by BACTEC method; type: functional
[5] = test system: Mycobacterium tuberculosis; assay: Antibacterial activity against Mycobacterium tuberculosis H37Rv under anaerobic condition assessed as growth inhibition at 100 ug/ml by BACTEC method; type: functional; conditions: read-out: GI
[6] = test system: Mycobacterium tuberculosis; assay: Antibacterial activity against Mycobacterium tuberculosis H37Rv under anaerobic condition assessed as growth inhibition at 5 ug/ml by BACTEC method; type: functional
[7] = test system: Mycobacterium tuberculosis; assay: Antibacterial activity against Mycobacterium tuberculosis H37Rv under anaerobic condition assessed as growth inhibition at 10 to 20 ug/ml by BACTEC method; type: functional
[8] = test system: Mycobacterium tuberculosis; assay: Antibacterial activity against Mycobacterium tuberculosis H37Rv assessed as growth inhibition at 20 ug/ml by BACTEC method; type: functional; conditions: read-out: GI
[9] = test system: Mycobacterium tuberculosis; assay: Antibacterial activity against Mycobacterium tuberculosis H37Rv assessed as growth inhibition at 40 ug/ml by BACTEC method; type: functional; conditions: read-out: GI
[10] = test system: Mycobacterium tuberculosis; assay: Antibacterial activity against Mycobacterium tuberculosis H37Rv under anaerobic condition assessed as growth inhibition at 0.1 ug/ml by BACTEC method; type: functional; conditions: read-out: GI
[11] = test system: Mycobacterium tuberculosis; assay: Antibacterial activity against Mycobacterium tuberculosis H37Rv under anaerobic condition assessed as growth inhibition at 10 ug/ml by BACTEC method; type: functional; conditions: read-out: GI
[12] = test system: Mycobacterium tuberculosis; assay: Antibacterial activity against Mycobacterium tuberculosis H37Rv under anaerobic condition assessed as growth inhibition at 20 ug/ml by BACTEC method; type: functional; conditions: read-out: GI
[13] = test system: Vero; assay: as §1; type: cell-based; conditions: chlorocebus sabaeus, vero, 72 h
[14] = test system: Mycobacterium tuberculosis; assay: Antibacterial activity against Mycobacterium tuberculosis H37Rv assessed as growth inhibition at 10 ug/ml by BACTEC method; type: functional; conditions: read-out: GI
[15] = test system: Mycobacterium tuberculosis; assay: Antibacterial activity against Mycobacterium tuberculosis H37Rv assessed as growth inhibition at 1 ug/ml by BACTEC method; type: functional; conditions: read-out: GI
[16] = test system: Mycobacterium tuberculosis; assay: Antibacterial activity against Mycobacterium tuberculosis H37Rv under anaerobic condition assessed as growth inhibition at 1 ug/ml by BACTEC method; type: functional; conditions: read-out: GI
[17] = test system: Mycobacterium tuberculosis; assay: Antibacterial activity against Mycobacterium tuberculosis H37Rv under anaerobic condition assessed as growth inhibition at 2 ug/ml by BACTEC method; type: functional; conditions: read-out: GI
[18] = test system: Mycobacterium tuberculosis; assay: Antibacterial activity against Mycobacterium tuberculosis H37Rv under anaerobic condition assessed as growth inhibition at 20 ug/ml after 2 to 3 days by BACTEC method; type: functional, organism-based
[19] = Mycobacterium tuberculosis, H37Rv, read-out: MIC99

SMILES: CCCCCCCCCCC#Cc1cn(C2C=CC(O)C2)c(=O)[nH]c1=O (racemic)
- MIC99 [1]: 20 µg/mL (≈ 55.8 µM)
- CC50 at 72 h [2]: > 125 µg/mL
- growth inhibition (GI) [3]: 99%

SMILES: NC(=O)c1cnccn1 [PYRAZINAMIDE]
- MIC99 [4, 19]: 100 µg/mL (≈ 812 µM)
- inhibition of growth at 100 µg/mL [5]: 100%

SMILES: CCCCCCCCCCCCC#Cc1cn(C2C=CC(O)C2)c(=O)[nH]c1=O (single isomer, unassigned; (-))
- growth inhibition (GI) [6]: 99%
- CC50 at 72 h [2]: > 100 µg/mL
- MIC99 [4, 19]: 5 µg/mL (≈ 12.9 µM)
- growth inhibition (GI) [7]: 100%

SMILES: O=c1[nH]c(=O)n(C2C=CC(O)C2)cc1I (racemic)
- MIC99 [1]: 20 µg/mL (≈ 62.5 µM)
- CC50 at 72 h [2]: > 200 µg/mL
- inhibition of growth at 20 µg/mL [8]: 99%
- inhibition of growth at 40 µg/mL [9]: 100%

SMILES: CC[C@@H](CO)NCCN[C@@H](CC)CO [ETHAMBUTOL]
- inhibition of growth at 5 µg/mL ([6]; Mycobacterium tuberculosis, H37Rv, read-out: GI): 100%
- MIC99 [4, 19]: 5 µg/mL (≈ 24.5 µM)

SMILES: CN[C@@H]1[C@H](O[C@H]2[C@H](O[C@H]3[C@H](O)[C@@H](O)[C@H](N=C(N)N)[C@@H](O)[C@@H]3N=C(N)N)O[C@@H](C)[C@]2(O)C=O)O[C@@H](CO)[C@H](O)[C@H]1O [STREPTOMYCIN]
- MIC99 [4, 19]: 0.1 µg/mL (≈ 0.172 µM)
- inhibition of growth at 0.1 µg/mL [10]: 100%

SMILES: CCCCCCCCCCCCC#Cc1cn(C2C=CC(O)C2)c(=O)[nH]c1=O (racemic)
- MIC99 [1]: 10 µg/mL (≈ 25.9 µM)
- inhibition of growth at 10 µg/mL [11]: 99%
- inhibition of growth at 20 µg/mL [12]: 100%
- CC50 [13]: 125 µg/mL (≈ 323 µM)
- growth inhibition (GI) [3]: 100%
- inhibition of growth at 10 µg/mL [14]: 99%

SMILES: CCCCCCCCCCCCC#Cc1cn(C2C=CC(O)C2)c(=O)[nH]c1=O (stereo in doubt; (+)6)
- growth inhibition (GI) [6]: 25%
- MIC99 [4]: 10 µg/mL (≈ 25.9 µM)

SMILES: CO[C@H]1/C=C/O[C@@]2(C)Oc3c(C)c(O)c4c(O)c(c(/C=N/N5CCN(C)CC5)c(O)c4c3C2=O)NC(=O)/C(C)=C\C=C\[C@H](C)[C@H](O)[C@@H](C)[C@@H](O)[C@@H](C)[C@H](OC(C)=O)[C@@H]1C [RIFAMPIN]
- MIC99 [1]: 1 µg/mL (≈ 1.22 µM)
- CC50 at 72 h [2]: > 500 µg/mL
- MIC99 [4, 19]: 1 µg/mL (≈ 1.22 µM)
- inhibition of growth at 1 µg/mL [15]: 100%
- inhibition of growth at 1 µg/mL [16]: 100%

SMILES: NNC(=O)c1ccncc1 [ISONIAZID]
- MIC99 [4, 19]: 0.1 µg/mL (≈ 0.729 µM)
- inhibition of growth at 0.1 µg/mL [10]: 100%

SMILES: O=c1ccn(C2C=CC(O)C2)c(=O)[nH]1 (racemic)
- MIC99 [1]: > 40 µg/mL
- CC50 at 72 h [2]: > 200 µg/mL
- inhibition of growth at 40 µg/mL [9]: 75%

SMILES: CC1COc2c(N3CCN(C)CC3)c(F)cc3c(=O)c(C(=O)O)cn1c23 (stereo not given) [OFLOXACIN]
- MIC99 [4, 19]: 2 µg/mL (≈ 5.53 µM)
- inhibition of growth at 2 µg/mL [17]: 100%

SMILES: CCCCCCCCC#Cc1cn(C2C=CC(O)C2)c(=O)[nH]c1=O (racemic)
- MIC99 [1]: 40 µg/mL (≈ 121 µM)
- CC50 at 72 h [2]: > 125 µg/mL
- inhibition of growth at 40 µg/mL [9]: 100%
- growth inhibition (GI) [18]: inactive

SMILES: Cc1cc(=O)[nH]c(=O)n1C1C=CC(O)C1 (racemic)
- MIC99 [1]: 40 µg/mL (≈ 192 µM)
- CC50 at 72 h [2]: > 200 µg/mL
- inhibition of growth at 40 µg/mL [9]: 100%
- growth inhibition (GI) [18]: inactive
